Results from patent publication EP0068617A1, “Derivatives of clavulanic acid, a process for their preparation and their use” (BEECHAM GROUP PLC, priority 1981, dated 1983).

Assays:
Assay in all cases: MIC of amoxycillin in combination with the compound (synergy)
Assay type in all cases: cell-based
Settings in all cases: amoxycillin alone
[1] = tested on: Staph. aureus Russell
[2] = tested on: Kleb. aerogenes E70
[3] = tested on: Escherichia coli JT39

- MIC µg/ml amoxycillin [1]: 500 µg/mL
- MIC µg/ml amoxycillin [2]: 1000 µg/mL
- MIC µg/ml amoxycillin [3]: 2000 µg/mL
SMILES: CC1(C)S[C@@H]2[C@H](NC(=O)[C@H](N)c3ccc(O)cc3)C(=O)N2[C@H]1C(=O)O [Amoxycillin]
